# Data: patent publication US20100008980A1, “Use of MAGE A3-Protein D Fusion Antigen in Immunotherapy Combined with Surgery, Chemotherapy or Radiotherapy for the Treatment of Cancer” (priority 2007, published 2010)
# Like-named read-outs stand apart in the source and are kept apart here.
# Key:
# lymphocytes = type: in vivo, CB6F1 female mice; conditions: for Total Cell count (multisizer): blood, CY 2 mg IP at day 0
# Experimental: (§1) Groups of CB6F1 female mice (n=10/group) received at day 0 sub-cutaneous (SC) 10e5 TC1-Mage3 cells followed by injection of: • Group 1: PBS at day 3-7-11-15 • Group 2: MAGE-A3 (1 μg)/As 15 ASCI at day 3-7-11-15 • Group 3: Cyclophosphamide (CY) (2 mg IP) at day 0+PBS at day 3-7-11-15 • Group 4: CY+MAGE-A3 (1 μg)/AS15 ASCI
# (§2) • verification of the depletion by FACS at day 3 and 15 on whole blood • in vivo tumor growth from day 0 to day 28 • ICS at day 28 on spleen cells • serology at day 28 (not completed)
# (§3) In order to analyze the impact of 2 mg of CY injected intraperitoneally in mice, 3 and 15 days after the injection blood was taken and lymphocytes count was performed by FACS
# CD4+CD25+ Treg = type: in vivo, CB6F1 female mice; conditions: for % CD4+ CD25+/ total cell / % Treg/ total cell / CD4+ CD25+ (events): blood, CY 2 mg IP at day 0
# Experimental: as §1, §2, §3
# TC1-Mage3 cells = type: in vivo, CB6F1 female mice; conditions: 10e5 TC1 MAGE3 cells SC day 0; cyclophosphamide 2 mg at day 0; groups of 10 mice
# Experimental: as §1, §2
# MAGE-A3 = tested on: MAGE-A3
# Experimental: as §1, §2
# 14 days after the last ASCI injection, the T cell response was analyzed by intracellular cytokine staining of CD4 and CD8 using flow cytometry (3 pools per group) after a short in vitro restimulation (2 Hrs) with the pool of MAGE-A3 overlapping peptide spanning the entire MAGE-A3 sequence.
compound,measurement,setting,value
"O=P1(N(CCCl)CCCl)NCCCO1 (stereo not shown) [Cyclophosphamide (Cy), Cyclophosphamide]",total number of T cells (in words),lymphocytes; 3 days after 2 mg CY,has an impact on the total number of T cells
same,total number of T cells (in words),lymphocytes; 15 days after the injection of CY,almost restored
same,Total Cell count (multisizer),lymphocytes; 3 days after injection,1 ×10e6 cells/ml
same,Total Cell count (multisizer),lymphocytes; 15 days after injection,5.53 ×10e6 cells/ml
same,number of T reg (in words),CD4+CD25+ Treg; 3 days after 2 mg cyclophosphamide,only slightly decreased the number of T reg but did not deplete them
same,% CD4+ CD25+/ total cell,CD4+CD25+ Treg; 3 days,0.1%
same,% Treg/ total cell,CD4+CD25+ Treg; 3 days,0.07%
same,CD4+ CD25+ (events),CD4+CD25+ Treg; 3 days,274 events
same,% CD4+ CD25+/ total cell,CD4+CD25+ Treg; 15 days,0.16%
same,% Treg/ total cell,CD4+CD25+ Treg; 15 days,0.13%
same,CD4+ CD25+ (events),CD4+CD25+ Treg; 15 days,539 events
same,"tumor rejection, % of the animals",TC1-Mage3 cells,100%
same,MAGE-A3 specific CD4 response,"MAGE-A3; cyclophosphamide by itself, spleen cells day 28, FIG. 1",did not induce any MAGE-A3 specific CD4 response
same,MAGE-A3 specific CD8 response,"MAGE-A3; cyclophosphamide by itself, spleen cells day 28, FIG. 2",did not induce any MAGE_A3 specific CD8 response
same,effect on the CD4 response induced by the ASCI,"MAGE-A3; cyclophosphamide given 3 days before the ASCI, FIG. 1",did not abolish the CD4 response induced by the ASCI there is even a trend in favor of a better response
same,effect on the CD8 response induced by the ASCI,"MAGE-A3; cyclophosphamide given 3 days before the ASCI, FIG. 2",did not abolish the CD8 response induced by the ASCI there is even a trend in favor of a better response
